Reference: ChEMBL document CHEMBL5241053, “Discovery of novel steroidal-chalcone hybrids with potent and selective activity against triple-negative breast cancer” (Bioorg Med Chem, 2020)
The source made the active and inactive calls. No cut-off for these calls is given here.

Columns and labels:
MDA-MB-231 [1] = assay: Induction of apoptosis in human MDA-MB-231 cells assessed as viable cells at 5 uM measured for 48 hrs by Annexin V-FITC/PI staining based flow cytometry assay (reference value: 93.7%); type: functional; conditions: read-out: Activity
MDA-MB-231 [2] = assay: Induction of cell cycle arrest in human MDA-MB-231 cells assessed as accumulation of cells at S phase at 1 uM incubated for 48 hrs by propidium iodide staining based flow cytometry (reference value: 3.62%); type: functional
MDA-MB-231 [3] = assay: Induction of apoptosis in human MDA-MB-231 cells assessed as increase in ROS levels at 10 uM measured at 12 hrs by DCFH-DA staining based flow cytometry assay; type: functional, cell-based
MDA-MB-231 [4] = assay: Induction of cell cycle arrest in human MDA-MB-231 cells assessed as accumulation of cells at S phase at 10 uM incubated for 48 hrs by propidium iodide staining based flow cytometry (reference value: 3.62%); type: functional
MDA-MB-231 [5] = assay: Induction of apoptosis in human MDA-MB-231 cells assessed as early apoptotic cells at 5 uM measured for 48 hrs by Annexin V-FITC/PI staining based flow cytometry assay (reference value: 0.49%); type: functional
MDA-MB-231 [6] = assay: Induction of apoptosis in human MDA-MB-231 cells assessed as late apoptotic cells at 5 uM measured for 48 hrs by Annexin V-FITC/PI staining based flow cytometry assay (reference value: 5.39%); type: functional
MDA-MB-231 [7] = assay: Induction of cell cycle arrest in human MDA-MB-231 cells assessed as accumulation of cells at M1 phase at 20 uM incubated for 48 hrs by propidium iodide staining based flow cytometry (reference value: 7.1%); type: functional
MDA-MB-231 [8] = assay: Induction of cell cycle arrest in human MDA-MB-231 cells assessed as accumulation of cells at G0/G1 phase at 20 uM incubated for 48 hrs by propidium iodide staining based flow cytometry (reference value: 90.25%); type: functional
MDA-MB-231 [9] = assay: Induction of apoptosis in human MDA-MB-231 cells assessed as early apoptotic cells at 1 uM measured for 48 hrs by Annexin V-FITC/PI staining based flow cytometry assay (reference value: 0.49%); type: functional
MDA-MB-231 [10] = assay: Induction of cell cycle arrest in human MDA-MB-231 cells assessed as accumulation of cells at M1 phase at 1 uM incubated for 48 hrs by propidium iodide staining based flow cytometry (reference value: 7.1%); type: functional
[11] = Selectivity index, ratio of IC50 for antiproliferative activity against human HT-29 cells to IC50 for antiproliferative activity against human MDA-MB-231 cells; type: functional
MDA-MB-231 [12] = assay: Induction of cell cycle arrest in human MDA-MB-231 cells assessed as accumulation of cells at M1 phase at 5 uM incubated for 48 hrs by propidium iodide staining based flow cytometry (reference value: 7.1%); type: functional
MDA-MB-231 [13] = assay: Induction of cell cycle arrest in human MDA-MB-231 cells assessed as accumulation of cells at G0/G1 phase at 10 uM incubated for 48 hrs by propidium iodide staining based flow cytometry (reference value: 90.25%); type: functional
MDA-MB-231 [14] = assay: Induction of cell cycle arrest in human MDA-MB-231 cells assessed as accumulation of cells at G2/M phase at 5 uM incubated for 48 hrs by propidium iodide staining based flow cytometry (reference value: 3.61%); type: functional
MDA-MB-231 [15] = assay: Inhibition of colony formation in human MDA-MB-231 cells upto 5 uM for 9 days by crystal violet staining based assay; type: functional, cell-based; conditions: time 9.0 day
MDA-MB-231 [16] = assay: Induction of cell cycle arrest in human MDA-MB-231 cells assessed as accumulation of cells at M1 phase at 10 uM incubated for 48 hrs by propidium iodide staining based flow cytometry (reference value: 7.1%); type: functional
MDA-MB-231 [17] = assay: Induction of cell cycle arrest in human MDA-MB-231 cells assessed as accumulation of cells at S phase at 20 uM incubated for 48 hrs by propidium iodide staining based flow cytometry (reference value: 3.62%); type: functional
MDA-MB-231 [18] = assay: Induction of apoptosis in human MDA-MB-231 cells assessed as viable cells at 1 uM measured for 48 hrs by Annexin V-FITC/PI staining based flow cytometry assay (reference value: 93.7%); type: functional; conditions: read-out: Activity
MDA-MB-231 [19] = assay: Induction of apoptosis in human MDA-MB-231 cells assessed as increase in ROS levels at 10 uM measured upto 48 hrs by DCFH-DA staining based flow cytometry assay; type: functional, cell-based
MDA-MB-231 [20] = assay: Induction of apoptosis in human MDA-MB-231 cells assessed as necrotic cells at 1 uM measured for 48 hrs by Annexin V-FITC/PI staining based flow cytometry assay (reference value: 0.43%); type: functional
MDA-MB-231 [21] = assay: Induction of cell cycle arrest in human MDA-MB-231 cells assessed as accumulation of cells at G2/M phase at 20 uM incubated for 48 hrs by propidium iodide staining based flow cytometry (reference value: 3.61%); type: functional
[22] = Selectivity index, ratio of IC50 for antiproliferative activity against human A549 cells to IC50 for antiproliferative activity against human MDA-MB-231 cells; type: functional
MDA-MB-231 [23] = assay: Antiproliferative activity against human MDA-MB-231 cells assessed as cell growth inhibition incubated for 4 hrs by MTT assay; type: functional, cell-based; conditions: MDA-MB-231, 4 h
MDA-MB-231 [24] = assay: Induction of apoptosis in human MDA-MB-231 cells assessed as necrotic cells at 10 uM measured for 48 hrs by Annexin V-FITC/PI staining based flow cytometry assay (reference value: 0.43%); type: functional
A549 = assay: Antiproliferative activity against human A549 cells assessed as cell growth inhibition incubated for 4 hrs by MTT assay; type: functional, cell-based; conditions: A549, 4 h
MDA-MB-231 [25] = assay: Induction of cell cycle arrest in human MDA-MB-231 cells assessed as accumulation of cells at G0/G1 phase at 5 uM incubated for 48 hrs by propidium iodide staining based flow cytometry (reference value: 90.25%); type: functional
MDA-MB-231 [26] = assay: Induction of cell cycle arrest in human MDA-MB-231 cells assessed as accumulation of cells at G2/M phase at 1 uM incubated for 48 hrs by propidium iodide staining based flow cytometry (reference value: 3.61%); type: functional
MDA-MB-231 [27] = assay: Induction of apoptosis in human MDA-MB-231 cells assessed as viable cells at 10 uM measured for 48 hrs by Annexin V-FITC/PI staining based flow cytometry assay (reference value: 93.7%); type: functional; conditions: read-out: Activity
MDA-MB-231 [28] = assay: Induction of apoptosis in human MDA-MB-231 cells assessed as decrease in Bcl-2 level upto 20 uM incubated for 48 hrs by Western blot analysis; type: functional, cell-based
MDA-MB-231 [29] = assay: Induction of apoptosis in human MDA-MB-231 cells assessed as late apoptotic cells at 1 uM measured for 48 hrs by Annexin V-FITC/PI staining based flow cytometry assay (reference value: 5.39%); type: functional
MDA-MB-231 [30] = assay: Induction of cell cycle arrest in human MDA-MB-231 cells assessed as accumulation of cells at S phase at 5 uM incubated for 48 hrs by propidium iodide staining based flow cytometry (reference value: 3.62%); type: functional
MDA-MB-231 [31] = assay: Induction of apoptosis in human MDA-MB-231 cells assessed as early apoptotic cells at 10 uM measured for 48 hrs by Annexin V-FITC/PI staining based flow cytometry assay (reference value: 0.49%); type: functional
MDA-MB-231 [32] = assay: Induction of apoptosis in human MDA-MB-231 cells assessed as increase in Bax level upto 20 uM incubated for 48 hrs by Western blot analysis; type: functional, cell-based
MDA-MB-231 [33] = assay: Induction of cell cycle arrest in human MDA-MB-231 cells assessed as accumulation of cells at G2/M phase at 10 uM incubated for 48 hrs by propidium iodide staining based flow cytometry (reference value: 3.61%); type: functional
MDA-MB-231 [34] = assay: Induction of apoptosis in human MDA-MB-231 cells assessed as upregulation of cleaved caspase-3 level upto 20 uM incubated for 48 hrs by Western blot analysis; type: functional, cell-based
MDA-MB-231 [35] = assay: Induction of apoptosis in human MDA-MB-231 cells assessed as upregulation of PARP level upto 20 uM incubated for 48 hrs by Western blot analysis; type: functional, cell-based
MDA-MB-231 [36] = assay: Induction of cell cycle arrest in human MDA-MB-231 cells assessed as accumulation of cells at G0/G1 phase at 1 uM incubated for 48 hrs by propidium iodide staining based flow cytometry (reference value: 90.25%); type: functional
MDA-MB-231 [37] = assay: Induction of apoptosis in human MDA-MB-231 cells assessed as necrotic cells at 5 uM measured for 48 hrs by Annexin V-FITC/PI staining based flow cytometry assay (reference value: 0.43%); type: functional
MDA-MB-231 [38] = assay: Induction of apoptosis in human MDA-MB-231 cells assessed as late apoptotic cells at 13.5 uM measured for 48 hrs by Annexin V-FITC/PI staining based flow cytometry assay (reference value: 5.39%); type: functional
HT-29 = assay: Antiproliferative activity against human HT-29 cells assessed as cell growth inhibition incubated for 4 hrs by MTT assay; type: functional, cell-based; conditions: HT-29, 4 h

## COc1ccccc1/C=C/C(=O)NCCNC(=O)[C@H]1CC[C@H]2[C@@H]3CCC4=CC(=O)CC[C@]4(C)[C@H]3CC[C@]12C
MDA-MB-231 [1]
  viability at 5 µM: 78.3%
MDA-MB-231 [2]
  Activity: 2.52%
MDA-MB-231 [3]
  Activity: Active
MDA-MB-231 [4]
  Activity: 28.07%
MDA-MB-231 [5]
  Activity: 17.1%
MDA-MB-231 [6]
  Activity: 4.35%
MDA-MB-231 [7]
  Activity: 37.4%
MDA-MB-231 [8]
  Activity: 47.17%
MDA-MB-231 [9]
  Activity: 9.24%
MDA-MB-231 [10]
  Activity: 13.8%
[11]
  Ratio IC50: 22.5
MDA-MB-231 [12]
  Activity: 16%
MDA-MB-231 [13]
  Activity: 55.27%
MDA-MB-231 [14]
  Activity: 12.25%
MDA-MB-231 [15]
  inhibition: Active
MDA-MB-231 [16]
  Activity: 22.8%
MDA-MB-231 [17]
  Activity: 37.22%
MDA-MB-231 [18]
  viability at 1 µM: 84%
MDA-MB-231 [19]
  Activity: Active
MDA-MB-231 [20]
  Activity: 0.16%
MDA-MB-231 [21]
  Activity: 10.01%
[22]
  Ratio IC50: 73.5
MDA-MB-231 [23]
  IC50: 0.42 µM
MDA-MB-231 [24]
  Activity: 0.4%
A549
  IC50: 30.9 µM
MDA-MB-231 [25]
  Activity: 69.83%
MDA-MB-231 [26]
  Activity: 12.11%
MDA-MB-231 [27]
  viability at 10 µM: 41.1%
MDA-MB-231 [28]
  Activity: Active
MDA-MB-231 [29]
  Activity: 6.63%
MDA-MB-231 [30]
  Activity: 15.23%
MDA-MB-231 [31]
  Activity: 45%
MDA-MB-231 [32]
  Activity: Active
MDA-MB-231 [33]
  Activity: 13.15%
MDA-MB-231 [34]
  Activity: Active
MDA-MB-231 [35]
  Activity: Active
MDA-MB-231 [36]
  Activity: 84.13%
MDA-MB-231 [37]
  Activity: 0.16%
MDA-MB-231 [38]
  Activity: 13.5%
HT-29
  IC50: 11.7 µM
